Assay results from patent US8338616B2, “Thiazoliums and their use for treating protein aging associated diseases” (Beijing Molecule Science And Technology Co., Ltd., priority 2008, dated 2012).
Where two headings read alike, the source gives them in different places. Marks after values point to notes of the source that are not given here.

Experiments:
[1] = test system: diabetic rats; conditions: for CO / Cl / Diastolic pressure / Heart rate / SAC / Systolic pressure / TPR / TPR index / Organ parameters: Heart / Organ parameters: Heart ventricle / Organ parameters: Left kidney / Organ parameters: Left ventricle / Organ parameters: Right kidney: diabetic rats; for CO / Cl / Diastolic pressure / Heart rate / SAC / Systolic pressure / TPR / TPR index: 4 weeks; for Organ parameters: Heart / Organ parameters: Heart ventricle / Organ parameters: Left kidney / Organ parameters: Left ventricle / Organ parameters: Right kidney: dose not given
Protocol: Rats were anesthetized with pentobarbital sodium injection (0.8%, 50 mg/kg), subjected to tracheal cannula, heparin anticoagulation, right common carotid artery cannula, communicated with Biopac physiological recorder via is pressure transducers to record blood pressure; subjected to thoracotomy at middle of sternum, separation of ascending aorta which was covered with pulse Doppler probe, and the pulse Doppler rheometer was linked to the Biopac physiological recorder for real-time recording and calculating hemodynamic parameters by the software of Biopac (Acknowledge, Version 3): systolic blood pressure (SBP), diastolic blood pressure (DBP), heart rate (HR), cardiac output
(CO), cardiac index (CI), total peripheral resistance (TPR), total peripheral resistance index (TPR Index), stroke volume (SV) and system arterial compliance (SAC), etc. After 10 min of postoperative stabilization, these parameters were recorded continuously, and mean values for 30 s were used as the measured values of these parameters.
Formula for calculating some of hemodynamic parameters: TPR=mean arterial pressure (MAP)/CO SAC=SV/(SBP−DBP)

[2] = test system: long-term diabetic rats
[3] = test system: AGE-BSA-collagen cross-links; conditions: n = 5
Protocol: AGE cross-link structures were prepared in vitro by cross-linking AGE-BSA to rat tail collagen coated on a 96 well ELISA plate. A ELISA method was used to evaluate the breaking effect of the compounds on AGE cross-links.
Normal Wister rats (body weight of 200±20 g) were sacrificed acutely, the tails were excised, and tail collagen was prepared at a temperature of 4° C. as follows. Tail tendon collagen fibrils were taken out, washed with physiological saline, peeled off non-collagen fibril tissues, rinsed with double-distilled water 3 times, cut into pieces, and immersed in 0.1% glacial acetic acid at 4° C. for one week during which it was shaken frequently. […] After dilution, the protein content was measured. […]
A solution containing 50 mg/ml of bovine serum albumin BSA (V) (Roch) and 0.5M of glucose in 0.2M PBS (pH 7.4) was incubated in dark at 37° C. under sterile condition for 3-4 months, to thereby form glycosylated BSA, i.e. BSA-AGE. […] Fluorescence scanning (Exi/Em (395/460 nm)) and SDS-PAGE were used to check the formation of BSA-AGE, and protein concentration was determined by the Lowery method.
The tail collagen coated 96 well ELISA plates were full-well treated with PBS (pH 7.4) for 1 hour to neutralize the acidic collagen. […] Within 10 minutes after the reaction, optical density (OD) was read at 450 nm on the BOBRAD Model 550 plate reader with the blank wells of the plates was set to 0. […]

[4] = test system: diabetic rats; conditions: for HR / LVEDP / LVSP / Neg dp/dt / Pos dp/dt: 4 weeks
Protocol: Rats were anesthetized with pentobarbital sodium injection (0.8%, 50 mg/kg), subjected to tracheal cannula, heparin anticoagulation, right common carotid artery cannula to left ventricle, communicated with Biopac physiological recorder via pressure transducers to record left ventricular pressure tracing, and the software of Biopac (Acknowledge, Version 3) was used for real-time reacording: heart rate, left ventricular systolic pressure peak (LVSP), maximum rate of change of left intraventricular pressure (±dp/dtmax), left ventricular end diastolic pressure (LVEDP). After 10 min of postoperative stabilization, the above parameters were recorded continuously, and mean values for 30 s were used as the measured values of these parameters.

[5] = test system: diabetic-hypertension rats
Protocol: The experiment about influence of AGEs breaker on hypotensive effect of nifedipine was performed on a diabetic-hypertension rat model. […] During the experiment, the animals took food freely, and were not interfered with any hypoglycemic drugs or hypotensive drugs.
The compound A was dissolved in distilled water, ready for use. Rats were randomly grouped as diabetic-hypertension control (DM-HTN) group and A (18 mg/kg) group. The drug was introgastrically administered once per day, and an equal amount of distilled water was administered in the diabetic-hypertension control group, for consecutive 4 weeks. After the end of experiment, blood samples were taken, thoracic aorta, liver, kidney were stored at −70° C. for standby use, and used for assays for tissue biochemical indicators and gene expression. Another part of kidney was fixed with 4% paraformaldehyde and used for pathological staining.
Nifedipine powder was formulated with DMSO to form a 5 mg/ml solution, then diluted with 15% ethanol-10% DMSO-25% PEG400 to form a 500 μg/ml solution, and diluted again to form 125 μg/ml, 62.5 μg/ml, 31.25 μg/ml, 15.62 μg/ml, 7.8 μg/ml solutions.
Rats were anesthetized with urethane-chloralose mixture by i.p., subjected to heparin anticoagulation, right common carotid artery cannula, communicated with
Biopac physiological recorder via pressure transducers. Through a right femoral vein remaining needle, nifedipine solutions were injected slowly by 5 batches in an order of concentrations from low to high, and arterial systolic pressure, diastolic pressure, pulse pressure and heart rate change were recorded continuously.

[6] = test system: NaCl treated diabetic rats modeled with heart failure; assay: Chronic heart failure, first batch, ultrasonic cardiogram evaluation; type: in vivo, rat; conditions: valsartan 10 mg/kg, compound A 18 mg/kg ig
Protocol: The pharmacodynamic evaluation was conducted by using a noninvasive ultrasonic cardiogram method.
Evaluation indexes: (1) morphology indexes: left ventricular posterior wall dimensions (LVPWd), left ventricular diastasis internal diameter (LVDd), end systolic diameter (LVDs); (2) functional indexes: ejection fraction (EF), shortening fraction (FS), ventricular early blood flow filling rate (E), atrial filling rate (A) and ratio of E/A; Doppler tissue image; at cardiac apical four chamber view, the valve ring of anterior mitral valve was used as sampling point, peak early diastolic velocity (Ea peak), peak late diastolic velocity (Aa peak), and Ea/Aa ratio reflected the systolic and diastolic motion of the whole left ventricle.
SPSS statistic software was used to analyze and treat data, and all data were expressed in mean±standard deviation (Mean±SD).

[7] = diabetic-hypertension rats, A 18 mg/kg intragastric once per day, 4 weeks

Structure (SMILES): Cc1csc[n+]1CC(=O)O.[Na+] [A, 3-carboxymethyl-4-methyl-thiazolium bromide sodium]
- CO ([1]; 9 mg/kg i.g.): 84.9 ± 13.6 mL/min
- Cl ([1]; 9 mg/kg i.g.): 0.194 ± 0.031 ml/min per cm^2
- Diastolic pressure ([1]; 9 mg/kg i.g.): 68.8 ± 14.0 mmHg
- Heart rate ([1]; 9 mg/kg i.g.): 265.2 ± 25.8^ beats/min
- SAC ([1]; 9 mg/kg i.g.): 9.05 ± 1.44** 10^−3 ml/mmHg
- Systolic pressure ([1]; 9 mg/kg i.g.): 105.3 ± 12.0 mmHg
- TPR ([1]; 9 mg/kg i.g.): 78.6 ± 19.7** 10^3 · dyne · sec/cm^5
- TPR index ([1]; 9 mg/kg i.g.): 181.6 ± 51.3 dyne · sec/cm^3
- CO ([1]; 18 mg/kg i.g.): 79.2 ± 10.6 mL/min
- Cl ([1]; 18 mg/kg i.g.): 0.179 ± 0.026 ml/min per cm^2
- Diastolic pressure ([1]; 18 mg/kg i.g.): 72.8 ± 17.2 mmHg
- Heart rate ([1]; 18 mg/kg i.g.): 282.2 ± 31.9^ beats/min
- SAC ([1]; 18 mg/kg i.g.): 8.02 ± 1.27** 10^−3 ml/mmHg
- Systolic pressure ([1]; 18 mg/kg i.g.): 108.7 ± 14.7 mmHg
- TPR ([1]; 18 mg/kg i.g.): 87.4 ± 22.3* 10^3 · dyne · sec/cm^5
- TPR index ([1]; 18 mg/kg i.g.): 198.2 ± 56.2 dyne · sec/cm^3
- CO ([1]; 36 mg/kg i.g.): 77.7 ± 10.0 mL/min
- Cl ([1]; 36 mg/kg i.g.): 0.179 ± 0.024 ml/min per cm^2
- Diastolic pressure ([1]; 36 mg/kg i.g.): 60.7 ± 16.1 mmHg
- Heart rate ([1]; 36 mg/kg i.g.): 261.0 ± 32.3^ beats/min
- SAC ([1]; 36 mg/kg i.g.): 7.92 ± 1.11* 10^−3 ml/mmHg
- Systolic pressure ([1]; 36 mg/kg i.g.): 99.2 ± 13.2 mmHg
- TPR ([1]; 36 mg/kg i.g.): 77.0 ± 19.6** 10^3 · dyne · sec/cm^5
- TPR index ([1]; 36 mg/kg i.g.): 176.4 ± 44.6 dyne · sec/cm^3
- Organ parameters: Heart ([1]; first of three A lines): 3.42 g/g × 10^-3
- Organ parameters: Heart ventricle ([1]; first of three A lines): 2.99 g/g × 10^-3
- Organ parameters: Left kidney ([1]; first of three A lines): 5.20 g/g × 10^-3
- Organ parameters: Left ventricle ([1]; first of three A lines): 2.29 g/g × 10^-3
- Organ parameters: Right kidney ([1]; first of three A lines): 5.33 g/g × 10^-3
- Organ parameters: Heart ([1]; second of three A lines): 3.44 g/g × 10^-3
- Organ parameters: Heart ventricle ([1]; second of three A lines): 3.01 g/g × 10^-3
- Organ parameters: Left kidney ([1]; second of three A lines): 5.16 g/g × 10^-3
- Organ parameters: Left ventricle ([1]; second of three A lines): 2.34 g/g × 10^-3
- Organ parameters: Right kidney ([1]; second of three A lines): 5.22 g/g × 10^-3
- Organ parameters: Heart ([1]; third of three A lines): 3.44 g/g × 10^-3
- Organ parameters: Heart ventricle ([1]; third of three A lines): 3.03 g/g × 10^-3
- Organ parameters: Left kidney ([1]; third of three A lines): 5.07 g/g × 10^-3
- Organ parameters: Left ventricle ([1]; third of three A lines): 2.32 g/g × 10^-3
- Organ parameters: Right kidney ([1]; third of three A lines): 5.19 g/g × 10^-3
- effect on angiosclerosis ([1]; long-term diabetic rats, 4 weeks of administration): improving angiosclerosis
- AGEs fluorescence content in aorta, left ventricular cardiac muscle and kidney [2]: significantly decreasing
- Breaking rate (decrease % in OD) ([3]; 0.01 umol/L): 8.1 ± 4.76, n =5%
- Breaking rate (decrease % in OD) ([3]; 0.1 umol/L): 11.3 ± 7.70, n = 5%
- HR ([4]; 9 mg/kg i.g.): 361.80 ± 39.74 beat/min
- LVEDP ([4]; 9 mg/kg i.g.): 5.73 ± 1.44 mmHg
- LVSP ([4]; 9 mg/kg i.g.): 161.54 ± 13.98 mmHg
- Neg dp/dt ([4]; 9 mg/kg i.g.): 7762.8 ± 320.2 mmHg/s
- Pos dp/dt ([4]; 9 mg/kg i.g.): 12201.2 ± 1872.2 mmHg/s
- HR ([4]; 18 mg/kg i.g.): 377.35 ± 17.54 beat/min
- LVEDP ([4]; 18 mg/kg i.g.): 6.87 ± 1.26 mmHg
- LVSP ([4]; 18 mg/kg i.g.): 170.65 ± 8.94 mmHg
- Neg dp/dt ([4]; 18 mg/kg i.g.): 7660.8 ± 1154.8 mmHg/s
- Pos dp/dt ([4]; 18 mg/kg i.g.): 11712.8 ± 1370.9 mmHg/s
- HR ([4]; 36 mg/kg i.g.): 368.99 ± 31.66 beat/min
- LVEDP ([4]; 36 mg/kg i.g.): 6.79 ± 2.47 mmHg
- LVSP ([4]; 36 mg/kg i.g.): 168.25 ± 15.48 mmHg
- Neg dp/dt ([4]; 36 mg/kg i.g.): 7675.4 ± 2216.6 mmHg/s
- Pos dp/dt ([4]; 36 mg/kg i.g.): 11425.3 ± 1660.0 mmHg/s
- effect on left ventricular functions ([4]; 4 weeks of administration): significant effect in improving left ventricular functions
- DBP [5, 7]: 144.2 ± 11.1 mmHg
- HR [5, 7]: 408.7 ± 35.7 beat/min
- MBP [5, 7]: 153.5 ± 13.7 mmHg
- PP [5, 7]: 22.9 ± 3.8 mmHg
- SBP [5, 7]: 166.6 ± 12.4 mmHg
- change in heart rate and blood pressure ([5]; diabetic-hypertension rats, compound A for 4 weeks): no significant change
- hypotensive extent of nifedipine ([5]; fourth dosage of nifedipine (62.5 μg/ml) i.v., after 4 weeks of A 18 mg/kg, model group 18.92±10.54): 29.99±9.06 mmHg
- hypotensive effect of nifedipine vs diabetic-hypertension model group ([5]; from second dosage of nifedipine (15.62 μg/ml), after 4 weeks of A 18 mg/kg): increased hypotensive effect
- hypotensive extent of nifedipine ([5]; third dosage of nifedipine (31.25 μg/ml) i.v., after 4 weeks of A 18 mg/kg, model group 9.35±6.46): 19.49±13.29 mmHg
- E/A ratio ([6]; 10th week of administration (30th week of modeling), model control 2.5±0.31): 1.32±0.31
- Ea/Aa ratio vs model ([6]; 10th week of administration): increased significantly
- LVDd and LVDs vs model ([6]; 10th week of administration): slight decrease
- PWd vs model ([6]; 10th week of administration): slight increase
- E/A ratio ([6]; 16th week of administration (36th week of modeling), model control 2.5±0.52): 1.45±0.18
